Assay results from patent US9913843B2, “Protein kinase C inhibitors and uses thereof” (Rigel Pharmaceuticals, Inc., priority 2012, dated 2018).
Where two headings read alike, the source gives them in different places.

Test system: PKC mediated IL-2 production in human primary T cells
Assay: IL-2 ELISA, human primary T cell, anti CD3+CD28+ (whole cell functional assay for PKC mediated IL-2 production)
Format: cell-based
In short: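 IL-2 in supernatants was quantified by ELISA after 24 h at 37 °C. Before stimulation with plate-coated anti-CD3 (1 μg/ml) and anti-CD28 (5 μg/ml), T cells expanded from PBMC were exposed to compound for 1 h; the counter-screen replaced antibodies with PMA 0.5 ng/ml and ionomycin 0.1 μM (final).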

[1] = 24 h, human primary T cells stimulated with anti-CD3 + anti-CD28, IL-2 by ELISA, read-out: IC50 for blocking IL-2 production
[2] = human primary T cells stimulated with anti-CD3 + anti-CD28, 24 h, IL-2 by ELISA, 8 pt, read-out: IL2 ELISA, Human primary T cell, anti-CD3 + CD28, 8 pt (IC50)

SMILES	IC50 [1] [µM]	IC50 [2] [µM]
N#Cc1cc(Nc2ncc(Cl)c(NC[C@@H]3CCCN4CCCC[C@H]34)n2)c(F)cc1C1CC1 [Compound 42, 5-(4-(((1S,9aR)-octahydro-1H-quinolizin-1-yl)methylamino)-5-chloropyrimidin-2-ylamino)-2-cyclopropyl-4-fluorobenzonitrile]	< 30	0.348
CC(C)N1C(=O)C(C)(C)Oc2cc(Nc3ncc(F)c(NC[C@@H]4CCCN5CCCC[C@H]45)n3)ccc21 [Compound 16, 7-(4-(((1S,9aR)-octahydro-1H-quinolizin-1-yl)methylamino)-5-fluoropyrimidin-2-ylamino)-4-isopropyl-2,2-dimethyl-2H-benzo[b][1,4]oxazin-3(4H)-one]	< 30	0.703
Cc1nnnn1-c1ccc(F)c(Nc2ncc(F)c(NC[C@@H]3CCCN4CCCC[C@H]34)n2)c1 [Compound 7, 5-fluoro-N2-(2-fluoro-5-(5-methyl-1H-tetrazol-1-yl)phenyl)-N4-(((1S,9aR)-octahydro-1H-quinolizin-1-yl)methyl)pyrimidine-2,4-diamine]	< 30	0.428
O=c1[nH]c2cc(Nc3nccc(NC[C@@H]4CCCN5CCCC[C@H]45)n3)ccc2o1 [Compound 58, 5-(4-(((1S,9aR)-octahydro-1H-quinolizin-1-yl)methylamino)pyrimidin-2-ylamino)benzo[d]oxazol-2(3H)-one]	< 30	18.6
Cc1nnnn1-c1cc(Nc2ncc(N(C)C)c(NC[C@@H]3CCCN4CCCC[C@H]34)n2)ccc1F [Compound 88, N2-(4-fluoro-3-(5-methyl-1H-tetrazol-1-yl)phenyl)-N4-(((1S,9aR)-octahydro-1H-quinolizin-1-yl)methyl)-N5,N5-dimethylpyrimidine-2,4,5-triamine]	< 30	12.7
Cc1nnnn1-c1cc(Nc2ncc(C(N)=O)c(NC[C@@H]3CCCN4CCCC[C@H]34)n2)ccc1F [Compound 126, 4-(((1S,9aR)-octahydro-1H-quinolizin-1-yl)methylamino)-2-(4-fluoro-3-(5-methyl-1H-tetrazol-1-yl)phenylamino)pyrimidine-5-carboxamide]	< 30	1.6

The remaining lines, values ahead:

IC50 [1] [µM]	IC50 [2] [µM]	SMILES
< 30	0.267	Cc1ccc(Nc2ncc(Cl)c(NC[C@@H]3CCCN4CCCC[C@H]34)n2)cc1C#N [Compound 40, 5-(4-(((1S,9aR)-octahydro-1H-quinolizin-1-yl)methylamino)-5-chloropyrimidin-2-ylamino)-2-methylbenzonitrile]
< 30	5.35	COc1cnc(Nc2cccc(C#N)c2)nc1NC[C@@H]1CCCN2CCCC[C@H]12 [Compound 79, 3-(4-(((1S,9aR)-octahydro-1H-quinolizin-1-yl)methylamino)-5-methoxypyrimidin-2-ylamino)benzonitrile]
< 30	0.0872	COc1ccc(Nc2ncc(Cl)c(NC[C@@H]3CCCN4CCCC[C@H]34)n2)cc1-n1nnnc1C [Compound 37, 5-chloro-N4-(((1S,9aR)-octahydro-1H-quinolizin-1-yl)methyl)-N2-(4-methoxy-3-(5-methyl-1H-tetrazol-1-yl)phenyl)pyrimidine-2,4-diamine]
< 30	2.42	COc1ccc(Nc2ncc(OC)c(NC[C@@H]3CCCN4CCCC[C@H]34)n2)cc1-n1nnnc1C [Compound 77, N4-(((1S,9aR)-octahydro-1H-quinolizin-1-yl)methyl)-5-methoxy-N2-(4-methoxy-3-(5-methyl-1H-tetrazol-1-yl)phenyl)pyrimidine-2,4-diamine]
< 30	1.08	Cc1ccc(Nc2ncc(C)c(NC[C@@H]3CCCN4CCCC[C@H]34)n2)cc1C#N [Compound 67, 5-(4-(((1S,9aR)-octahydro-1H-quinolizin-1-yl)methylamino)-5-methylpyrimidin-2-ylamino)-2-methylbenzonitrile]
< 30	0.0031	N#Cc1cnc(Nc2ccc(Cl)c(-n3nnnc3C3CC3)c2)nc1NC[C@@H]1CCCN2CCCC[C@H]12 [Compound 124, 4-(((1S,9aR)-octahydro-1H-quinolizin-1-yl)methylamino)-2-(4-chloro-3-(5-cyclopropyl-1H-tetrazol-1-yl)phenylamino)pyrimidine-5-carbonitrile]
< 30	15.4	COc1cnc(Nc2ccc3oc(=O)[nH]c3c2)nc1NC[C@@H]1CCCN2CCCC[C@H]12 [Compound 84, 5-(4-(((1S,9aR)-octahydro-1H-quinolizin-1-yl)methylamino)-5-methoxypyrimidin-2-ylamino)benzo[d]oxazol-2(3H)-one]
< 30	12.4	CC(O)COc1ccc(Nc2ncc(C#N)c(NC[C@@H]3CCCN4CCCC[C@H]34)n2)cc1C#N (stereo partly drawn) [Compound 144, 2-((3-cyano-4-(2-hydroxypropoxy)phenyl)amino)-4-((((1S,9aR)-octahydro-2H-quinolizin-1-yl)methyl)amino)pyrimidine-5-carbonitrile]
< 30	0.0074	N#Cc1cnc(Nc2cc(-n3cnnn3)c(C3CC3)cc2F)nc1NC[C@@H]1CCCN2CCCC[C@H]12 [Compound 116, 4-(((1S,9aR)-octahydro-1H-quinolizin-1-yl)methylamino)-2-(4-cyclopropyl-2-fluoro-5-(1H-tetrazol-1-yl)phenylamino)pyrimidine-5-carbonitrile]
